US20190382850A1, “METHOD FOR IDENTIFYING MITOCHONDRIAL DNA IN EXTRACELLULAR VESICLES AND TREATMENT OF MTDNA-RELATED DISORDERS AND CANCER” (Memorial Sloan-Kettering Cancer Center, priority 2017, published 2019)

Assays:
[1] = tested on: luminal breast cancer cells and xenograft derived cells; experiment: mtDNA level (qPCR copy number) in HT-induced dormant cells; assay type: cell-based, human; conditions: fulvestrant 10 μM for 2 months; several models of HT-induced dormancy; FIG. 5b
Description: (Panel b) mtDNA level (qPCR as fold change, naïve cells was used as reference) in luminal breast cancer cells and xenograft derived cells (multiple models)±HT (fulvestrant, 10 μM for 2 months). (Panel c) Dormant MCF7 cells (HTD) were isolated and treated with 3×10^9 mCAF-derived EVs (wt-mtDNA^hi or ρ0-mtDNA^lo) weekly ×4+HT (fulvestrant, 10 μM/weekly). After 40 days, mammosphere (MS) number and mitochondrial membrane potential (Δψ) by TMRE staining (red) in HTR/mito^hi EV and HTD/mito^lo EV educated cells was determined; scale bar 15 μm. […] (Panel f) Murine mitochondrial RNA expression (14 genes, as fold change -log10scale-) by qRT-PCR in HTR and HTS cells (panel e) (reference HTDorm cells; MCF7); the expression of nuclear encoded murine (non-mitochondrial RNA) transcripts was also determined (Cox4, β2M). […]
Generation of HTD cells was performed by treating ER+(GFP+) breast cancer cell lines (MCF7, ZR751, BT474) with HT (fulvestrant, 10 μM) for 2 months. […] Viable cell number was subsequently determined using trypan blue exclusion and cell counting using bright field microscopy HTD cells were then cultured in vitro or injected in vivo for further studies. […] Proliferation was determined by Cal cein AM technique (InVitrogen). […] After 40 days, mammosphere number (bright field microscopy) was determined after 40 days. […] Tumor growth was determined by BLI and after necropsy. […]

[2] = tested on: mitochondrial complex I and IV; experiment: Mitochondrial complex I/IV activity in HT-treated luminal breast cancer cell lines; assay type: cell-based, human; conditions: fulvestrant; FIG. 11e
From the text: (Panel a), Representative bright field images of MCF7 po cells±CAF-EVs (3×10^9/weekly for 40 days). Bar graph of number of MS is also reported at the endpoint of the experiment (40 days). (Panel b), HT led to decreased expression of mRNA involved in protein synthesis and OXPHOS signaling with z score and -log (p-values)- as determined by Ingenuity analysis of microarray data from RNA isolated FIG. 5a (MCF7), single P values are also reported. (Panel c), OXPHOS potential determined as changes of respiration rate under mitochondrial stressors by seahorse technology (oligomycin 1 μM, rotenone 100 nM) in cancer cells isolated from FIG. 5b (MCF7, PT1). […] (Panel e), Mitochondrial Complex I/IV activity quantification as determined by nmol/min/mg of protein in luminal breast cancer cell lines from panel a. […]
To measure mitochondrial complex activity, cell pellets were resuspended in assay buffer (125 mM sucrose, 0.1 mM EDTA, 25 mM Tris-HCl pH 7.5, 0.025% Lauryl-β-D-maltoside), and enzymatic activities were assayed with 0.1-0.4·10^6 cells/ml at 25° C. spectrophotometrically. NADH:HAR reductase activity of Complex I was measured as a decrease in absorption at 340 nm (ε340 nm=6.22 mM-1 cm-1) with 200 μM NADH, 1mM HAR and 1 mM KCN. Complex IV activity was measured as cytochrome oxidation at 550 nm (ε550 nm=21.5 mM-cm-) with 50 μM ferrocytochrome c. […] Protein content was determined with a BCA assay.

## C[C@]12CC[C@@H]3c4ccc(O)cc4C[C@@H](CCCCCCCCC[S+]([O-])CCCC(F)(F)C(F)(F)F)[C@H]3[C@@H]1CC[C@@H]2O (some centres unmarked) [fulvestrant]
[1]
  reduction of mtDNA level (copy number) vs control: 70-90%
[2]
  mitochondrial complex I and IV activity in cells treated with HT: reduced
